We go through 22 compounds from patent publication US9133179B2, “2-methoxy-pyridin-4-yl-derivatives” (Actelion Pharmaceuticals Ltd., priority 2011, dated 2015).

Assay [1] has as its target T1, human S1P1 (EDG1) receptor (Homo sapiens, UniProt P21453).
T1 construct: host or cells: U2OS (Tango EDG1-bla U2OS)
Kind of assay: S1P1 β-arrestin recruitment (Tango) assay to determine EC50 values. Type of assay: cell-based. As to conditions: Tango-EDG1 bla U2OS cells, 16 h incubation. The source says: S1P1 β-Arrestin Recruitment (Tango) Assay to Determine EC50 Values
Upon ligand activation, G protein-coupled receptors (GPCR) trigger two pathways that independently transduce signals to the cell: one through heterotrimeric GTP-binding proteins (G proteins) and one through β-arrestins. Agonist-induced GPCRs recruit β-arrestin proteins, which then bind to the carboxy-terminal domain of ligand-activated GPCRs. The amount of β-arrestin recruitment can be used to assess the potency and efficacy of GPCR activating ligands.
To measure the potency and efficacy of compounds as S1P1 (EDG1) receptor agonists, Tango™-EDG1 bla U2OS cells (Invitrogen, USA, Catalog #K1520) are used. The Tango™ GPCR technology is based on GeneBLAzer β-lactamase reporter cell assays, which uses a mammalian-optimized β-lactamase reporter gene (bla) combined with a FRET-enabled substrate. The host cells, U2OS, stably express a human S1P1 (EDG1) receptor/transcription factor (TF) fusion protein. The cells also express a recombinant protease tagged β-arrestin protein, which is recruited to the S1P1 receptor upon ligand stimulation and specifically cleaves the S1P1-TF fusion protein. The released TF activates the β-lactamase (bla) reporter gene. To measure the reporter gene activity, cells are loaded with a fluorescent substrate containing two chemically coupled fluorophores, coumarin and fluorescein. […] In the presence of bla, the chemical bond is cleaved and FRET is inhibited. […] The amount of β-arrestin recruitment is proportional to the increase in blue fluorescence.
Tango™-EDG1 bla U2OS cells are cultivated in McCoy's 5A containing 10% dialyzed FBS, 0.1 mM NEAA, 25 mM HEPES, 1 mM sodium pyruvate, 1% Penicillin/Streptomycin, 200 μg/ml zeocin, 50 μg/ml hygromycin and 100 μg/ml geneticin (Invitrogen, USA). Cells are detached with trypsin, resuspended in medium and then counted.
Compounds (10 mM stock in DMSO) are diluted first in DMSO. The pre-diluted compounds solutions are then transferred into Assay Medium/0.1% fatty acid free BSA to reach a fourfold concentrated compound stock, which is applied to the cells to reach the final compound concentrations that range from 10 μM to 0.0005 nM (0.5% final DMSO). Cells are then incubated for 16 h at 37° C. and 5% CO2.
For orientation: Activated receptors often draw arrestin, which recruitment assays turn into a signal.

For assay [2], the system named is circulating lymphocytes. Kind of assay: Assessment of in vivo efficacy: circulating lymphocytes after oral administration to Wistar rats. Also on record: species or system rat. As to conditions: Rattus norvegicus, Lymphocyte, normotensive male Wistar rats, compared to vehicle group, read-out: Lymphocyte counts; for change in vivo at 10 mg/kg: 6 h after oral administration of 10 mg/kg. Here is the method: Assessment of In Vivo Efficacy
The efficacy of the compounds of Formula (I) is assessed by measuring the circulating lymphocytes after oral administration of 3 to 30 mg/kg of a compound of Formula (I) to normotensive male Wistar rats. The animals are housed in climate-controlled conditions with a 12 h-light/dark cycle, and have free access to normal rat chow and drinking water. […] Full blood is subjected to hematology using Advia Hematology system (Bayer Diagnostics, Zurich, Switzerland).
All data are presented as mean±SEM. Statistical analyses are performed by analysis of variance (ANOVA) using Statistica (StatSoft) and the Student-Newman-Keuls procedure for multiple comparisons. The null hypothesis is rejected when p<0.05.

T1 sequence (P21453 whole entry): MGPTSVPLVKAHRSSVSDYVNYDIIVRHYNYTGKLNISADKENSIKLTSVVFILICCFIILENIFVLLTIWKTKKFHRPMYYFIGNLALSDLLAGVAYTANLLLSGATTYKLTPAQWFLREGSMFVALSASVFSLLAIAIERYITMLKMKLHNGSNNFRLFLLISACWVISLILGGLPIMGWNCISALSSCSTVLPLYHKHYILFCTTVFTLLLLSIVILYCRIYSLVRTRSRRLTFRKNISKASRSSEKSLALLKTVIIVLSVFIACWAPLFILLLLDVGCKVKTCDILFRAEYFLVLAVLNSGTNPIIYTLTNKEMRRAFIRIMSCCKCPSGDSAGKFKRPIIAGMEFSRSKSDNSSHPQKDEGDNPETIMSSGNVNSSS

In general, EC50 refers to the concentration giving half of the maximal effect. Low readings indicate greater potency, high ones weaker potency. For `CCc1cc(-c2nnc(-c3cc(OC)nc(C4CCCC4)c3)o2)cc(C)c1OCC(=O)O` [Example 60, 2-(4-(5-(2-Cyclopentyl-6-methoxypyridin-4-yl)-1,3,4-oxadiazol-2-yl)-2-ethyl-6-methylphenoxy)acetic acid], the EC50 in assay [1] turned out to be 7.2 nM. The change in vivo at 10 mg/kg in assay [2] was -35%.
In assay [1], `CCc1cc(-c2noc(-c3cc(OC)nc(C4CCCC4)c3)n2)cc(C)c1OCCCNC(=O)CC(=O)O` [Example 31, 3-((3-(4-(5-(2-Cyclopentyl-6-methoxypyridin-4-yl)-1,2,4-oxadiazol-3-yl)-2-ethyl-6-methylphenoxy)propyl)amino)-3-oxopropanoic acid] returned an EC50 of 0.0716 nM. The change in vivo at 10 mg/kg in assay [2] was -68%.
The compound `CCc1cc(-c2noc(-c3cc(OC)nc(C4CCCC4)c3)n2)cc(C)c1OCCCNC(CO)CO` [Example 26, 2-((3-(4-(5-(2-Cyclopentyl-6-methoxypyridin-4-yl)-1,2,4-oxadiazol-3-yl)-2-ethyl-6-methylphenoxy)propyl)amino)propane-1,3-diol] came in with an EC50 in assay [1] of 15.1 nM.
`COc1cc(-c2nc(-c3cc(C)c(OCCNCCC(=O)O)c(Cl)c3)no2)cc(C2CCCC2)n1` [Example 43, 3-((2-(2-Chloro-4-(5-(2-cyclopentyl-6-methoxypyridin-4-yl)-1,2,4-oxadiazol-3-yl)-6-methylphenoxy)ethyl)amino)propanoic acid] had an EC50 in assay [1] of 0.1 nM. The change in vivo at 10 mg/kg in assay [2] was -62%.
`COc1cc(-c2nc(-c3cc(Cl)c(OCCNCC(=O)O)c(OC)c3)no2)cc(C2CCCC2)n1` [Example 51, 2-((2-(2-Chloro-4-(5-(2-cyclopentyl-6-methoxypyridin-4-yl)-1,2,4-oxadiazol-3-yl)-6-methoxyphenoxy)ethyl)amino)acetic acid] came in with an EC50 in assay [1] of 0.7 nM. Also, in assay [2] (6 h after an oral dose of 3 mg/kg), the change in vivo at 3 mg/kg was -22%.
In assay [1], `COc1cc(-c2nc(-c3cc(Cl)c(OCCN4CC(C(=O)O)C4)c(OC)c3)no2)cc(C2CCCC2)n1` [Example 52, 1-(2-(2-Chloro-4-(5-(2-cyclopentyl-6-methoxypyridin-4-yl)-1,2,4-oxadiazol-3-yl)-6-methoxyphenoxy)ethyl)azetidine-3-carboxylic acid] came in with an EC50 of 0.6 nM. Moreover, the change in vivo at 10 mg/kg in assay [2] was -71%.
On the same counts, the results for `CCc1cc(-c2noc(-c3cc(OC)nc(C4CCCC4)c3)n2)cc(C)c1OCCN(C)CC(=O)O` [Example 16, 2-((2-(4-(5-(2-Cyclopentyl-6-methoxypyridin-4-yl)-1,2,4-oxadiazol-3-yl)-2-ethyl-6-methylphenoxy)ethyl)(methyl)amino)acetic acid] are 0.2 nM and -75%.
In assay [1], `COc1cc(-c2nc(-c3cc(Cl)c(OCCCNC(=O)CO)c(OC)c3)no2)cc(C2CCCC2)n1` [Example 38, N-(3-(2-Chloro-4-(5-(2-cyclopentyl-6-methoxypyridin-4-yl)-1,2,4-oxadiazol-3-yl)-6-methoxyphenoxy)propyl)-2-hydroxyacetamide] returned an EC50 of 0.893 nM.
The same measure, in the same setting: with `CCc1cc(-c2noc(-c3cc(OC)nc(C4CCCC4)c3)n2)cc(C)c1OCCCC(=O)NCCO` [Example 46, 4-(4-(5-(2-Cyclopentyl-6-methoxypyridin-4-yl)-1,2,4-oxadiazol-3-yl)-2-ethyl-6-methylphenoxy)-N-(2-hydroxyethyl)butanamide] the figure was 1.8 nM; with `CCc1cc(-c2noc(-c3cc(OC)nc(C4CCCC4)c3)n2)cc(C)c1OCCCNCCO` [Example 24, 2-((3-(4-(5-(2-Cyclopentyl-6-methoxypyridin-4-yl)-1,2,4-oxadiazol-3-yl)-2-ethyl-6-methylphenoxy)propyl)amino)ethanol], 69 nM.
`CCc1cc(-c2noc(-c3cc(OC)nc(C4CCCC4)c3)n2)cc(C)c1OCCN(C)CCC(=O)O` [Example 17, 3-((2-(4-(5-(2-Cyclopentyl-6-methoxypyridin-4-yl)-1,2,4-oxadiazol-3-yl)-2-ethyl-6-methylphenoxy)ethyl)(methyl)amino)propanoic acid]: the midpoint of the response in assay [1], the EC50, lay at 0.2 nM.
The same measure, in the same setting: with `CCc1cc(-c2noc(-c3cc(OC)nc(C4CCCC4)c3)n2)cc(C)c1OC[C@@H](O)CNC(=O)CC(=O)O` [Example 14] the figure was 0.03 nM; with `CCc1cc(-c2nnc(-c3cc(OC)nc(C4CCCC4)c3)o2)cc(C)c1OC[C@@H](O)CNCCO` [Example 64, (S)-1-(4-(5-(2-Cyclopentyl-6-methoxypyridin-4-yl)-1,3,4-oxadiazol-2-yl)-2-ethyl-6-methylphenoxy)-3-((2-hydroxyethyl)amino)propan-2-ol], 3 nM.
Still for that read-out and setting: then `CCc1cc(-c2noc(-c3cc(OC)nc(C4CCCC4)c3)n2)cc(C)c1OCCCNCC(O)CO` (racemic) [Example 28, rac-3-((3-(4-(5-(2-Cyclopentyl-6-methoxypyridin-4-yl)-1,2,4-oxadiazol-3-yl)-2-ethyl-6-methylphenoxy)propyl)amino)propane-1,2-diol], with 25.6 nM; and `CCc1cc(-c2noc(-c3cc(OC)nc(C4CCCC4)c3)n2)cc(C)c1OCCNC(CO)CO` [Example 25, 2-((2-(4-(5-(2-Cyclopentyl-6-methoxypyridin-4-yl)-1,2,4-oxadiazol-3-yl)-2-ethyl-6-methylphenoxy)ethyl)amino)propane-1,3-diol], with 4.23 nM; and `CCc1cc(-c2noc(-c3cc(OC)nc(C4CCCC4)c3)n2)cc(C)c1OCCNCCO` [Example 23, 2-((2-(4-(5-(2-Cyclopentyl-6-methoxypyridin-4-yl)-1,2,4-oxadiazol-3-yl)-2-ethyl-6-methylphenoxy)ethyl)amino)ethanol], with 24.7 nM.
In assay [1], `CCc1cc(-c2noc(-c3cc(OC)nc(C4CCCC4)c3)n2)cc(C)c1OCCCN1CC(C(=O)O)C1` [Example 22, 1-(3-(4-(5-(2-Cyclopentyl-6-methoxypyridin-4-yl)-1,2,4-oxadiazol-3-yl)-2-ethyl-6-methylphenoxy)propyl)azetidine-3-carboxylic acid] displayed a concentration giving a half-maximal response (EC50) of 2.95 nM.
`CCc1cc(-c2nc(-c3cc(OC)nc(C4CCCC4)c3)no2)cc(C)c1OCCN(C)CC(=O)O` [Example 56, 2-((2-(4-(3-(2-Cyclopentyl-6-methoxypyridin-4-yl)-1,2,4-oxadiazol-5-yl)-2-ethyl-6-methylphenoxy)ethyl)(methyl)amino)acetic acid] came in with an EC50 in assay [1] of 0.1 nM.
On the same count and under the same terms, with `CCc1cc(-c2nnc(-c3cc(OC)nc(C4CCCC4)c3)o2)cc(C)c1OC[C@@H](O)CNC(=O)CCC(=O)O` [Example 66] the figure was 0.05 nM; with `CCc1cc(-c2nnc(-c3cc(OC)nc(C4CCCC4)c3)o2)cc(C)c1OC[C@@H](O)CNC(CO)CO` [Example 65], 0.7 nM; with `CCc1cc(-c2noc(-c3cc(OC)nc(C4CCCC4)c3)n2)cc(C)c1OCCCNCCC(=O)O` [Example 19, 3-((3-(4-(5-(2-Cyclopentyl-6-methoxypyridin-4-yl)-1,2,4-oxadiazol-3-yl)-2-ethyl-6-methylphenoxy)propyl)amino)propanoic acid], 0.4 nM.
Still for that read-out and setting: then `CCc1cc(-c2nc(-c3cc(OC)nc(C4CCCC4)c3)no2)cc(C)c1OCCN1CC(C(=O)O)C1` [Example 58, 1-(2-(4-(3-(2-Cyclopentyl-6-methoxypyridin-4-yl)-1,2,4-oxadiazol-5-yl)-2-ethyl-6-methylphenoxy)ethyl)azetidine-3-carboxylic acid], with 0.2 nM.
